The values that follow come from patent US20250304567A1, “PYRROLIDIONE DERIVATIVES AS INHIBITORS OF NF KAPPA B INDUCING KINASE” (priority 2022, published 2025).

pIC50: −log10 of the molar value. Where only a bound is given, the exact number is not on record here.

Experiment [1] relates to p-IKKa levels in L363 (NIK translocated multiple myeloma) cells. In words: Effect of compounds on p-IKKa levels in L363 (NIK translocated multiple myeloma) cells (AlphaLISA SureFire Ultra p-IKKa Ser176/180). It counts as cell-based, human. As to conditions: Homo sapiens, L-363, p-IKKa levels in L363 cells; average if tested more than once; read-out: Assay 2 IC50. The method in brief: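 Phospho-IKKa (Ser176/180) in lysates quantified by AlphaLISA after 6 h compound exposure, 11-point threefold dilutions, 0.3% DMSO. L363 cells were pre-stimulated overnight and assayed with 250 ng/ml BAFF and 10 μM MG132; % inhibition fitted sigmoidally for IC50, duplicate curves.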

Experiment [2] addresses Recombinant Human NF-kappaB-Inducing Kinase (NIK/MAP3K14) (Homo sapiens, UniProt Q99558). Put plainly: Inhibition of auto-phosphorylation of recombinant human NIK/MAP3K14 activity (AlphaScreen). As to conditions: 5 μM ATP, 1 nM NIK, average if tested more than once. It counts as biochemical. The method in brief:
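AlphaScreen detection of phospho-Ser176/180 after 1 nM GST-NIK auto-phosphorylates for 2 h at 25 °C with 5 μM ATP (50 mM Tris pH 7.5, 0.7% DMSO). IC50s come from sigmoidal curves of % inhibition against log dose, using enzyme-free, ATP-free low controls and full-activity high controls.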
On the technique in general: In Alpha technology, singlet oxygen from a donor bead excites a nearby acceptor bead.

Recombinant Human NF-kappaB-Inducing Kinase (NIK/MAP3K14), sequence (Q99558 whole entry): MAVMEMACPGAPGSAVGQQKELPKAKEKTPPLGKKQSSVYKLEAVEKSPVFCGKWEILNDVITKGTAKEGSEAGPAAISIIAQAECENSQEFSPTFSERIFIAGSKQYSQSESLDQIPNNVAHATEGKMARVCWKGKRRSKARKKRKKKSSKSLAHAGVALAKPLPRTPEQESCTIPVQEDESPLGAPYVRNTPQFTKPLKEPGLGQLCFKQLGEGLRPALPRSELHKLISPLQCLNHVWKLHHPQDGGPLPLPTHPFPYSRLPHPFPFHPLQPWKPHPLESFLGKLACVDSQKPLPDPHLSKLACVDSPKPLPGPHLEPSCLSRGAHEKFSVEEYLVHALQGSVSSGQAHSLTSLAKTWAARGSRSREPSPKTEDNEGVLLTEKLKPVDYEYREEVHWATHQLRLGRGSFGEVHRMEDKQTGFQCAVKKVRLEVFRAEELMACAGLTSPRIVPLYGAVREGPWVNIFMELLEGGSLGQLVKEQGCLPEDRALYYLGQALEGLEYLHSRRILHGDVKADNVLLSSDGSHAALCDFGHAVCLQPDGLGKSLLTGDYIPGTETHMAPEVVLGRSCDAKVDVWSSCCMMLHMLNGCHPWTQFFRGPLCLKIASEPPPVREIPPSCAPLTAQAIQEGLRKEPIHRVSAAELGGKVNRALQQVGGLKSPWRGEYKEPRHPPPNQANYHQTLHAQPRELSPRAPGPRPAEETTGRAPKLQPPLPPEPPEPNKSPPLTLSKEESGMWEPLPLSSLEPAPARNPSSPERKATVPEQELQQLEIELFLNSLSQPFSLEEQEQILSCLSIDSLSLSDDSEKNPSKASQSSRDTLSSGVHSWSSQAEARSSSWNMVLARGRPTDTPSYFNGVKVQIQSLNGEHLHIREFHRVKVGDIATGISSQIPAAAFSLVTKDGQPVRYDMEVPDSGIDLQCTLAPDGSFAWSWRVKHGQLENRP

One may read the pIC50 as the IC50 on a negative log10 scale, so that one unit is a factor of ten. Take `CN1CC[C@@](O)(c2cccc(-c3csc(-c4ccnc(Nc5cnn6cccnc56)n4)n3)c2)C1=O` [Example 85, (R)-3-hydroxy-1-methyl-3-(3-(2-(2-(pyrazolo[1,5-a]pyrimidin-3-ylamino)pyrimidin-4-yl)thiazol-4-yl)phenyl)pyrrolidin-2-one]: the pIC50 in experiment [1] and in experiment [2] was above 7.00 in each case.
Take `COCCn1cc(Nc2nccc(-c3nc(-c4cccc([C@]5(O)CCN(C)C5=O)c4)cs3)n2)cn1` [Example 86, (R)-3-hydroxy-3-(3-(2-(2-((1-(2-methoxyethyl)-1H-pyrazol-4-yl)amino)pyrimidin-4-yl)thiazol-4-yl)phenyl)-1-methylpyrrolidin-2-one]: the pIC50 in experiment [1] and in experiment [2] was above 7.00 throughout.
On to `CN1CCC(n2cc(Nc3nccc(-c4nc(-c5cccc([C@]6(O)CCN(C)C6=O)c5)cs4)n3)cn2)CC1` [Example 87, (R)-3-hydroxy-1-methyl-3-(3-(2-(2-((1-(1-methylpiperidin-4-yl)-1H-pyrazol-4-yl)amino)pyrimidin-4-yl)thiazol-4-yl)phenyl)pyrrolidin-2-one], for which the results for the pIC50 in experiment [1] and in experiment [2] were 6.30 to 7.00 and above 7.00, respectively.
As to `CN1CC[C@@](O)(c2cccc(-c3csc(-c4ccnc(Nc5cnn(C6CCS(=O)(=O)CC6)c5)n4)n3)c2)C1=O` [Example 88, (R)-3-(3-(2-(2-((1-(1,1-dioxidotetrahydro-2H-thiopyran-4-yl)-1H-pyrazol-4-yl)amino)pyrimidin-4-yl)thiazol-4-yl)phenyl)-3-hydroxy-1-methylpyrrolidin-2-one], the pIC50 in experiment [1] was 6.30 to 7.00; in experiment [2], above 7.00.
In the case of `CN1CC[C@@](O)(c2cccc(-c3csc(-c4ccnc(Nc5cnn(CC(C)(C)O)c5)n4)n3)c2)C1=O` [Example 89, (R)-3-hydroxy-3-(3-(2-(2-((1-(2-hydroxy-2-methylpropyl)-1H-pyrazol-4-yl)amino)pyrimidin-4-yl)thiazol-4-yl)phenyl)-1-methylpyrrolidin-2-one], the pIC50 in experiment [1] and in experiment [2] was above 7.00 in each case.
For the molecule `CN1CC[C@@](O)(c2cccc(-c3ccn(-c4ccnc(Nc5cnn(C)c5)n4)n3)c2)C1=O` [Example 90, (R)-3-hydroxy-1-methyl-3-(3-(1-(2-((1-methyl-1H-pyrazol-4-yl)amino)pyrimidin-4-yl)-1H-pyrazol-3-yl)phenyl)pyrrolidin-2-one], the pIC50 in experiment [1] is 6.30 to 7.00; in experiment [2], above 7.00.
For the molecule `CN1CC[C@@](O)(c2cccc(-c3nc(-c4ccnc(Nc5cn(C)nc5OC5CCCC5)n4)cs3)c2)C1=O` [Example 95, (R)-3-(3-(4-(2-((3-(cyclopentyloxy)-1-methyl-1H-pyrazol-4-yl)amino)pyrimidin-4-yl)thiazol-2-yl)phenyl)-3-hydroxy-1-methylpyrrolidin-2-one], the values for the pIC50 in experiment [1] and in experiment [2] were 6.30 to 7.00 and above 7.00, respectively.
Regarding `CN1CC[C@@](O)(c2cccc(-c3nc(-c4ccnc(Nc5cn(C)nc5OCC(F)F)n4)cs3)c2)C1=O` [Example 96, (R)-3-(3-(4-(2-((3-(2,2-difluoroethoxy)-1-methyl-1H-pyrazol-4-yl)amino)pyrimidin-4-yl)thiazol-2-yl)phenyl)-3-hydroxy-1-methylpyrrolidin-2-one], the pIC50 in experiment [1] and in experiment [2] was above 7.00 in each case.
On to `CN1CC[C@@](O)(c2cccc(-c3nc(-c4ccnc(Nc5cn(C)nc5OC5CCC5)n4)cs3)c2)C1=O` [Example 97, (R)-3-(3-(4-(2-((3-cyclobutoxy-1-methyl-1H-pyrazol-4-yl)amino)pyrimidin-4-yl)thiazol-2-yl)phenyl)-3-hydroxy-1-methylpyrrolidin-2-one], for which the pIC50 in experiment [1] and in experiment [2] was above 7.00 throughout.
On to `CN1CC[C@@](O)(c2cccc(-c3nc(-c4ccnc(Nc5cn(C)nc5OCC(F)(F)F)n4)cs3)c2)C1=O` [Example 98, (R)-3-hydroxy-1-methyl-3-(3-(4-(2-((1-methyl-3-(2,2,2-trifluoroethoxy)-1H-pyrazol-4-yl)amino)pyrimidin-4-yl)thiazol-2-yl)phenyl)pyrrolidin-2-one], for which the pIC50 in experiment [1] and in experiment [2] was above 7.00 each time.
